# Results published in US20220080025A1, “VITAMIN E AND CANCER THERAPEUTIC COMPOSITIONS AND METHODS” (University of Vermont and State Agricultural College, priority 2019, published 2022).
# Key:
# LP9 cells = test: Cell viability of LP9 mesothelial cells, 48 h, crystal violet staining; format: cell-based; conditions: VitE-TPGS (w/v) in 0.9% NaCl
# Description: (§1) Studies were performed to test the effects on cell viability of mesothelial (LP9) and malignant mesothelioma (HM) cells in culture when contacted with thiostrepton (TS) or TS diluted in Vitamin E-TPGS (VitE-TPGS, D-alpha-tocopherol polyethylene glycol 1000 succinate).
# (§2) Indicated cell lines were plated into 96 well plates and allowed to adhere overnight. The following day test compounds were serially diluted in duplicate wells onto cells in complete tissue culture media. VitE-TPGS was serially diluted from a starting concentration of 0.025% (w/v) in 0.9% NaCl and added to LP9 or HM cells (FIG. 1). TS, dissolved in DMSO, was diluted to a starting concentration of 20 μM into cell culture media and serially diluted or diluted from a 1.5 mM TS/DMSO/5% VitE-TPGS (33 mM)/0.9% NaCl solution to a starting concentration of 20 μM TS/0.06% VitE-TPGS and serially diluted onto LP9 or HM cells (FIG. 2). Cells were incubated with test compounds for 48 hours before determining cell number using an indirect readout of cell viability by staining residual cells with crystal violet. The inhibitory concentration (IC50) in which 50% of the cells are not viable, was determined for tested compounds.
# HM cells = test: Cell viability of HM malignant mesothelioma cells, 48 h, crystal violet staining; format: cell-based
# Description: as §1, §2
# physchem = conditions: 5% VitE-TPGS in normal saline, aqueous with cosolvent or surfactant or cyclodextrin, thermodynamic from solid
# Description: (§3) This study was performed to determine the intrinsic solubility of the test article in a variety of formulation systems as detailed below.
# (§4) This method measured equilibrium solubility after 24h incubation with the desired formulation mixture. The solubility of the test article in each formulation mixture was measured by comparison of the AUC of the LC/MS spectrum obtained by injection of the solution of the test article in the desired solvent to the AUC of a reference standard solution. […] The reference solution was made fresh for every time point. Data was then calculated to give % test article remaining as function of time.
# (§5) 1) A stock solution of the active pharmaceutical ingredient (API) was prepared in a 1,4-dioxane at 10 mM. 2) Nineteen 200 μl portions of stock were dispensed into 19 clean 500 μl micro-centrifuge tubes and the solvent removed by a stream of nitrogen. The 19 tubes were marked with numbers 1-19. 3) Five 200 μl portions of stock were dispensed into 5 clean 200 μl micro-centrifuge tubes and the solvent removed by a stream of nitrogen; these tubes were marked: S1, S2, S3, S4 and S5 and were to be saved for quantization by LC/MS. 4) The vehicles were prepared on a w/w basis for co-solvents, and on a molar basis for salts. 5) 200 μL of each vehicle was introduced into the appropriate micro centrifuge tube 1-19, corresponding to that vehicle. The final concentration of API was 10 mM. These were the test samples. 6) The sample tubes 1-19 were sonicated for 30 min and then agitated for 24h. 7) The vessel was centrifuged and 50 μl of the supernatant was removed and diluted with 350 μl of acetonitrile for LC/MS analysis. These were the test samples. 8) Micro-centrifuge tubes S1-S5 were reconstituted immediately before analysis by adding 200 μl of acetonitrile and 200 μl od 1,4-dioxane to the tubes and sonicating for 30 min. These were the standards. 9) Before analysis all 24 tubes were centrifuged. 10) 50 μl of the clear supernatant from Sample tubes 1-19 was removed and diluted into 350 μl of acetonitrile for LC/MS analysis. 11) 100 μl of the clear supernatant from Standard tubes S1-S5 was removed and diluted into 300 μl of acetonitrile for LC/MS analysis.
# (§6) 13) Quantization was based on comparison to the AUC from the stock solution and was relative.
# (§7) A freshly prepared standard was used for each time point.
# [1] = Equilibrium (intrinsic) solubility of the test article in formulation mixtures, 24h, LC/MS; conditions: for solubility at 24 h: aqueous with cosolvent or surfactant or cyclodextrin, thermodynamic from solid
# Description: as §3, §4, §5, §6, §7
molecule,measurement,setting,value
D-a-tocopheryl polyethylene glycol 1000 succinate [VitE-TPGS],IC50,LP9 cells,0.0014%
same,IC50,"HM cells; HM cells, VitE-TPGS (w/v) in 0.9% NaCl",0.0006%
"C=C(NC(=O)C(=C)NC(=O)c1csc(C2=N[C@@H]3c4csc(n4)[C@H]4NC(=O)c5csc(n5)[C@H]([C@](C)(O)[C@@H](C)O)NC(=O)[C@H]5CSC(=N5)/C(=C/C)NC(=O)[C@H]([C@@H](C)O)NC(=O)c5csc(n5)[C@]3(CC2)NC(=O)[C@H](C)NC(=O)C(=C)NC(=O)[C@H](C)NC(=O)[C@H]([C@@H](C)CC)N[C@@H]2C=Cc3c([C@H](C)O)cc(nc3[C@H]2O)C(=O)O[C@@H]4C)n1)C(N)=O [TS, Thiostrepton]",Sensitivity of HM cells compared to LP9 cells,HM cells; HM vs LP9 cells,more sensitive
same,solubility at 24 h,physchem,1740 µM
same,solubility at 24 h,"[1]; 1% polyacrylic acid (450,000 amw) in normal saline",130 µM
same,solubility at 24 h,"[1]; 1% polyvinylalcohol (61,000 amw) in normal saline",200 µM
same,Solubility (in words),"[1]; 1,4-dioxane and chloroform",freely soluble
same,solubility at 24 h,[1]; 2% Tween 80 in normal saline,220 µM
same,solubility at 24 h,[1]; 10% Cremophore in normal saline,1140 µM
same,solubility at 24 h,[1]; 10% Solutol HS 15 in normal saline,520 µM
same,solubility at 24 h,[1]; 10% capmul in normal saline,50 µM
same,solubility at 24 h,[1]; 10% meglumine in normal saline,200 µM
same,solubility at 24 h,[1]; 20% Captisol in normal saline,380 µM
same,solubility at 24 h,[1]; 20% Gelucire 44/14 in normal saline,1170 µM
same,solubility at 24 h,[1]; 20% Labrafil 1944CS in normal saline,490 µM
same,solubility at 24 h,[1]; 20% Peceol in normal saline,300 µM
same,solubility at 24 h,[1]; 20% hydroxypropyl-beta-cyclodextrin in normal saline,440 µM
same,solubility at 24 h,[1]; 20% poloxamer 188 in normal saline,210 µM
same,solubility at 24 h,[1]; 20% transcutol in normal saline,660 µM
same,solubility at 24 h,[1]; 30% Capryol 90 in normal saline,1470 µM
same,solubility at 24 h,[1]; 30% Labrafac PG in normal saline,380 µM
same,solubility at 24 h,[1]; 30% Labrasol in normal saline,150 µM
same,solubility at 24 h,[1]; 30% polyethylene glycol 300 in normal saline,320 µM
same,Solubility (in words),[1]; aqueous solutions and a variety of organic solvents,fairly low solubility
